Several values for one entry are separate records, joined by “and”; a condition that tells them apart may be missing. Equal entries are not always repeated.
Experiments:
[1] = system: tumor tissue cell, Lung Tumor; experiment: 3D drug susceptibility detection (three-dimensional co-culture system), lung tumor patient; format: cell-based, human; conditions: serial No. 0018
Source text: A fourth exemplary embodiment is shown below. • 3D drug susceptibility detection result

tumor tissue cell, NSCLC = experiment: 3D drug susceptibility detection (three-dimensional co-culture system), NSCLC patient; format: cell-based, human
Source text: A third exemplary embodiment is shown below. • 3D drug susceptibility detection result

[2] = system: tumor tissue cell, Liver cancer; experiment: 3D drug susceptibility detection (three-dimensional co-culture system), liver cancer patient; format: cell-based, human; conditions: person
Source text: A second exemplary embodiment is shown below. • 3D drug susceptibility detection result

[3] = system: human hepatocellular carcinoma cells HepG2; experiment: CellTiter-Glo cell viability, 72 hours; format: cell-based; conditions: duplicate wells
Source text: (§1) A first exemplary embodiment is shown a detection of the angstrom silver on a proliferation influence of human non-small cell lung cancer cells A549 and human hepatocellular carcinoma cells HepG2.
(§2) Reagents and consumables shown below: 1. HepG2, provided by HD Biosciences (Shanghai) Co., Ltd., and passed a mycoplasma detection; 2, F 12K culture medium, American Gibco, Art. No.: 21127-022; 3. EMEM culture medium, American ATCC, Art. No.: 30-2003; 4. Fetal bovine serum (FBS), American Hyclone, Art. No.: CH30160.03; 5. Penicillin-streptomycin liquid, American Invitrogen, Art. No.: CH15140-122; 6. DG-5 (25 Ang) and DG-5 solvents, DG-6 (25 Ang) and DG-6 solvents respectively provided by Shenzhen AMCAN Medical Biotechnology Limited; 7. […] DMSO, American Sigma, Art. No.: D4540; 9. 96-well cell culture plate, American Corning, Art. No.: 3610; 10. CellTiter-Glo Luminescent Cell Viability Assay, American Promega, Art. No.: G7571; 11. Plate reader, American Perkin Elmer, EnVision Multilabel Plate Reader.
(§3) Cell culture medium: 1. A549 culture medium: including 10% fetal bovine serum and F 12K culture medium with 100 U penicillin and 100 μg/mL streptomycin; 2. HepG2 culture medium: including 10% fetal bovine serum and EMEM culture medium with 100 U penicillin and 100 μg/mL streptomycin.
(§4) 3. Only before starting an experiment, in the sterile condition, the prepared dg-5 gradient concentration solution is diluted 2 times by full cell culture medium. At this time, the gradient concentration of a compound to be measured includes 150 ppm, 15 ppm, 1.5 ppm, 0.15 ppm and 0.015 ppm, which is a 2-by-compound solution to be used to treat cells.
(§5) 4. Only before starting the experiment, in the sterile condition, the prepared dg-5 gradient concentration solution was diluted 100 times by the full cell culture medium. At this time, the gradient concentration of the compound to be measured includes 2 μM, 200 nM, 20 nM, 2 nM and 0.2 nM, which is a 2-by-compound solution to be used to treat cells.
(§6) 1. The cell is inoculated in a 96-well cell culture plate the day before the treatment of the compound, while an inoculation density is shown in the experimental design above, and an inoculation volume was 100 μL per hole.
(§7) 2. The next day, the prepared 2-by-compound solution is added to the 96-well cell culture plate according to an arrangement diagram of the compound, and each hole is added to 100 μL.
(§8) 3. Gently oscillating the 96-well cell culture plate and placing it in a 37° C. incubator to continue cultivating for 72 hours.
(§9) 4. After reaching a designated incubation time, a prepared reagent is added to the 96-well cell culture plate according to a CellTiterGlo's reagent specification, and then it is fully blended under a room temperature, finally avoid light incubation for 10 minutes.
(§10) 5. Placing the 96-well cell culture plate in a plate reader to analyze it, and setting it to read chemical luminescence and record data.
(§11) Readout in each hole needs to be converted to a cell viability. The cell viability can be calculated by the following formula: […]

[4] = system: human non-small cell lung cancer cells A549; experiment: CellTiter-Glo cell viability, 72 hours; format: cell-based; conditions: duplicate wells
Source text: as §1, §2, §3, §4, §5, §6, §7, §8, §9, §10, §11

| Compound | drug efficacy, 3D drug susceptibility detection [1] | drug efficacy, 3D drug susceptibility detection (tumor tissue cell, NSCLC; serial No. 0015) | drug efficacy, 3D drug susceptibility detection [2] | other results |
| --- | --- | --- | --- | --- |
| C=CC(=O)Nc1cc(Nc2nccc(-c3cn(C)c4ccccc34)n2)c(OC)cc1N(C)CCN(C)C [AZD9291] | best group of efficacy | best group of efficacy | – | – |
| Nc1ccn([C@@H]2O[C@H](CO)[C@@H](O)C2(F)F)c(=O)n1 [gemcitabine] | – | best group of efficacy | – | – |
| CNC(=O)c1cc(Oc2ccc(NC(=O)Nc3ccc(Cl)c(C(F)(F)F)c3)cc2)ccn1 [sorafenib] | – | – | Ineffective | – |
| C#Cc1cccc(Nc2ncnc3cc(OCCOC)c(OCCOC)cc23)c1 [erlotinib] | worst group of efficacy | worst group of efficacy | – | – |
| COc1cc2ncnc(Nc3ccc(F)c(Cl)c3)c2cc1OCCCN1CCOCC1 [gefitinib] | worst group of efficacy | worst group of efficacy | – | – |
| Cc1ccc(NC(=O)c2ccc(CN3CCN(C)CC3)cc2)cc1Nc1nccc(-c2cccnc2)n1 [imatinib] | – | – | better | – |
| CC(=O)O[C@H]1C(=O)[C@@]2(C)[C@H]([C@H](OC(=O)c3ccccc3)[C@]3(O)C[C@H](OC(=O)[C@H](O)[C@@H](NC(=O)c4ccccc4)c4ccccc4)C(C)=C1C3(C)C)[C@]1(OC(C)=O)CO[C@@H]1C[C@@H]2O [paclitaxel] | – | – | second efficacy | – |
| Nc1nc2[nH]cc(CCc3ccc(C(=O)N[C@@H](CCC(=O)O)C(=O)O)cc3)c2c(=O)[nH]1 [pemetrexed] | worst group of efficacy | worst group of efficacy | Ineffective | drug efficacy, 3D drug susceptibility detection (tumor tissue cell, NSCLC; serial No. 0015, listed as permetrexed): very poor efficacy |
| O=c1[nH]cc(F)c(=O)[nH]1 [5-fluorouracil] | worst group of efficacy | worst group of efficacy | Ineffective | – |
| CC(=O)O[C@@]12CO[C@@H]1C[C@H](O)[C@@]1(C)C(=O)[C@H](O)C3=C(C)[C@@H](OC(=O)[C@H](O)[C@@H](NC(=O)OC(C)(C)C)c4ccccc4)C[C@@](O)([C@@H](OC(=O)c4ccccc4)[C@H]21)C3(C)C [docetaxel] | – | – | second efficacy | – |
| N.N.O=C([O-])C1(C(=O)[O-])CCC1.[Pt+2] [carboplatin] | – | – | Ineffective | – |
| CN[C@@H]1C[C@H]2O[C@@](C)([C@@H]1OC)n1c3ccccc3c3c4c(c5c6ccccc6n2c5c31)C(=O)NC4 [STSP] | – | – | – | Percentage of cell growth ([3]; HepG2, 0.1 nM): 109.0% and 103.4%; Percentage of cell growth ([3]; HepG2, 1 nM): 88.4% and 86.2%; Percentage of cell growth ([3]; HepG2, 100 nM): 17.5% and 22.2%; Percentage of cell growth ([3]; HepG2, 1000 nM): 9.7% and 11.2%; Percentage of cell growth ([4]; A549, 0.1 nM): 124.6% and 126.9%; Percentage of cell growth ([4]; A549, 1 nM): 99.8% and 99.2%; Percentage of cell growth ([4]; A549, 10 nM): 68.8% and 68.5%; Percentage of cell growth ([4]; A549, 100 nM): 28.5% |

Reference: patent publication US20200038438A1, “ANGSTROM SILVER INJECTION FOR CANCER INHIBITION, PREPARATION METHOD AND APPLICATION THEREOF” (Shenzhen AMCAN Medical Biotechnology Limited, priority 2018, published 2020)
